# Reference: US10023922B2, “Reporter of genomic methylation and uses thereof” (Whitehead Institute for Biomedical Research, priority 2015, dated 2018)
# Tested on: Gapdh and Dazl reporter constructs
# Experiment: In vitro methylation of reporter plasmids, checked by bisulfite conversion, PCR amplification and sequencing
# Format: biochemical
# Settings: FIGS. 2A and 2B
# Excerpt: Conversely, we were interested to assess whether a methylated and silent donor Snrpn promoter can be reactivated by means of demethylation acquired in vivo. For this we used the CpG methyltransferase M.SssI to in vitro methylate both Gapdh and Dazl reporter constructs.
# Bisulfite conversion of DNA was established using the EpiTect Bisulfite Kit (Qiagen) following the manufacturer's instructions. The resulting modified DNA was amplified by first round of nested PCR, following a second round using loci specific PCR primers (see complete list of primers below). The first round of nested PCR was done as follows: 94° C. for 4 min; 55° C. for 2 min; 72° C. for 2 min; Repeat steps 1-3 1×; 94° C. for 1 min; 55° C. for 2 min; 72° C. for 2 min; Repeat steps 5-7 35×; 72° C. for 5 min; Hold 12° C. The second round of PCR was as followed: 95° C. for 4 min; 94° C. for 1 min; 55° C. for 2 min; 72° C. for 2 min; Repeat steps 2-4 35×; 72° C. for 5 min; Hold 12° C. The resulting amplified products were gel-purified, subcloned into A pCR2.1-TOPO-TA cloning vector (Life Technologies), and sequenced.
substance,measurement,value
M.SssI: CpG methyltransferase used to in vitro methylate reporter constructs,methylation of CGI and Snrpn promoter regions of the treated plasmids,complete hypermethylation
